{"source": "the kinase profiling compilation of Christmann-Franck et al. (2016)", "assay_in_all_cases": "radiometric filter-binding kinase assay, Kinase HotSpot", "conditions_in_all_cases": "compound 0.5 µM; ATP 10 µM", "key": {"ABL1 (human)": {"target": "ABL1 (human) (UniProt P00519)"}, "ABL2 (human)": {"target": "ABL2 (human) (UniProt P42684)"}, "AKT2 (human)": {"target": "AKT2 (human) (UniProt P31751)", "sequence (P31751 whole entry, looked up)": "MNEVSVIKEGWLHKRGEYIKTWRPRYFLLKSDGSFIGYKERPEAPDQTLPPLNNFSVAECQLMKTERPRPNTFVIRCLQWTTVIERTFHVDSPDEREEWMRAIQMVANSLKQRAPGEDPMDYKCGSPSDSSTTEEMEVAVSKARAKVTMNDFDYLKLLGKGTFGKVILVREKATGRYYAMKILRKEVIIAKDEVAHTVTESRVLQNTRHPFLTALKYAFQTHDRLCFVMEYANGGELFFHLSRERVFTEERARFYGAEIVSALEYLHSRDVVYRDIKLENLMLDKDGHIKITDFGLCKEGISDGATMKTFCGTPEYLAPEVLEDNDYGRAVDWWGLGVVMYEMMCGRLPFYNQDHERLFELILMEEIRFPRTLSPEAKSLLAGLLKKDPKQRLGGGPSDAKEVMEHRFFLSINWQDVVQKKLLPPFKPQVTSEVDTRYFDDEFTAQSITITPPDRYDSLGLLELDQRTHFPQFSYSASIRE"}, "CAMKK1 (human)": {"target": "CAMKK1 (human) (UniProt Q8N5S9)"}, "CDK1 CCNB1 (human)": {"target": "CDK1 CCNB1 (human) (UniProt P06493+P14635)"}, "CDK5 CDK5R1 p35 (human)": {"target": "CDK5 CDK5R1 p35 (human) (UniProt Q00535+Q15078)"}, "CLK4 (human)": {"target": "CLK4 (human) (UniProt Q9HAZ1)", "sequence (Q9HAZ1 whole entry, looked up)": "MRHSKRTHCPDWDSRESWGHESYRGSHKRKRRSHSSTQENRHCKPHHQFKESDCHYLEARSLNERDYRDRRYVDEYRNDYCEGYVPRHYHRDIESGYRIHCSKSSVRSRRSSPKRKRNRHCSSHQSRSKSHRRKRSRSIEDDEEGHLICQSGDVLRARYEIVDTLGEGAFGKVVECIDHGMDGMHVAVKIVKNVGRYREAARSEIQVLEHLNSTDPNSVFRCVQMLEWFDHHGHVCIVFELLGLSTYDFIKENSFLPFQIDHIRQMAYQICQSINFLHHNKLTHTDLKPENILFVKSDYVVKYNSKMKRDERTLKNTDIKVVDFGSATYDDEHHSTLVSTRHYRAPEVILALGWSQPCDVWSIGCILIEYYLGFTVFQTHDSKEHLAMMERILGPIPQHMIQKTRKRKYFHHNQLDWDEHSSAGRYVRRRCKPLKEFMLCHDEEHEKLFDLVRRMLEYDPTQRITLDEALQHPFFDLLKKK"}, "CSNK2A2 (human)": {"target": "CSNK2A2 (human) (UniProt P19784)"}, "DYRK1A (human)": {"target": "DYRK1A (human) (UniProt Q13627)"}, "EPHA7 (human)": {"target": "EPHA7 (human) (UniProt Q15375)"}, "EPHB1 (human)": {"target": "EPHB1 (human) (UniProt P54762)"}, "FGFR1 (human)": {"target": "FGFR1 (human) (UniProt P11362)"}, "FGFR4 (human)": {"target": "FGFR4 (human) (UniProt P22455)"}, "FLT1 (human)": {"target": "FLT1 (human) (UniProt P17948)"}, "IGF1R (human)": {"target": "IGF1R (human) (UniProt P08069)"}, "INSR (human)": {"target": "INSR (human) (UniProt P06213)"}, "LIMK1 (human)": {"target": "LIMK1 (human) (UniProt P53667)"}, "LRRK2 (human)": {"target": "LRRK2 (human) (UniProt Q5S007)"}, "MAP4K2 (human)": {"target": "MAP4K2 (human) (UniProt Q12851)", "sequence (Q12851 whole entry, looked up)": "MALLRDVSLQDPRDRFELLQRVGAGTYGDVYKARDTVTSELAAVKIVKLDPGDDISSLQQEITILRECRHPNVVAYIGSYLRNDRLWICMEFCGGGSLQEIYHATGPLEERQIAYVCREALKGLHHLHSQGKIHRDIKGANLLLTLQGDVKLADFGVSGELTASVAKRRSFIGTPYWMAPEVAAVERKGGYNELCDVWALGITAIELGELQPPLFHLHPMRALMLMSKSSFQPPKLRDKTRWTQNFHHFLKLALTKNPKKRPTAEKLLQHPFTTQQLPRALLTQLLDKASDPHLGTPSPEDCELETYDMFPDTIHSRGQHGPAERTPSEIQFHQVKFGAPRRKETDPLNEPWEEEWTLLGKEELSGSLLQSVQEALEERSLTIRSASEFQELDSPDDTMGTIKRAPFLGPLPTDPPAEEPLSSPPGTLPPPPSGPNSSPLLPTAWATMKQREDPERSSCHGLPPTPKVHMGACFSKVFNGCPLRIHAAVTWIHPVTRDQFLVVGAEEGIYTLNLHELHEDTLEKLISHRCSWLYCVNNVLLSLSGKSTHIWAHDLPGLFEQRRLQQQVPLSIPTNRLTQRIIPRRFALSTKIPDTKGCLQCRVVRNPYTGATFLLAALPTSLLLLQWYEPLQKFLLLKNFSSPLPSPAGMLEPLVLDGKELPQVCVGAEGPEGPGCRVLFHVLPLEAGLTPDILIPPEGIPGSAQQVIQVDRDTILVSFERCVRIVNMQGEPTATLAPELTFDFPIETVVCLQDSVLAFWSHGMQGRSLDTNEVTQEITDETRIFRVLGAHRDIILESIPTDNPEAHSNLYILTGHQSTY"}, "MAPK10 (human)": {"target": "MAPK10 (human) (UniProt P53779)"}, "MAPK14 (human)": {"target": "MAPK14 (human) (UniProt Q16539)"}, "MARK3 (human)": {"target": "MARK3 (human) (UniProt P27448)"}, "NEK11 (human)": {"target": "NEK11 (human) (UniProt Q8NG66)"}, "NTRK2 (human)": {"target": "NTRK2 (human) (UniProt Q16620)", "sequence (Q16620 whole entry, looked up)": "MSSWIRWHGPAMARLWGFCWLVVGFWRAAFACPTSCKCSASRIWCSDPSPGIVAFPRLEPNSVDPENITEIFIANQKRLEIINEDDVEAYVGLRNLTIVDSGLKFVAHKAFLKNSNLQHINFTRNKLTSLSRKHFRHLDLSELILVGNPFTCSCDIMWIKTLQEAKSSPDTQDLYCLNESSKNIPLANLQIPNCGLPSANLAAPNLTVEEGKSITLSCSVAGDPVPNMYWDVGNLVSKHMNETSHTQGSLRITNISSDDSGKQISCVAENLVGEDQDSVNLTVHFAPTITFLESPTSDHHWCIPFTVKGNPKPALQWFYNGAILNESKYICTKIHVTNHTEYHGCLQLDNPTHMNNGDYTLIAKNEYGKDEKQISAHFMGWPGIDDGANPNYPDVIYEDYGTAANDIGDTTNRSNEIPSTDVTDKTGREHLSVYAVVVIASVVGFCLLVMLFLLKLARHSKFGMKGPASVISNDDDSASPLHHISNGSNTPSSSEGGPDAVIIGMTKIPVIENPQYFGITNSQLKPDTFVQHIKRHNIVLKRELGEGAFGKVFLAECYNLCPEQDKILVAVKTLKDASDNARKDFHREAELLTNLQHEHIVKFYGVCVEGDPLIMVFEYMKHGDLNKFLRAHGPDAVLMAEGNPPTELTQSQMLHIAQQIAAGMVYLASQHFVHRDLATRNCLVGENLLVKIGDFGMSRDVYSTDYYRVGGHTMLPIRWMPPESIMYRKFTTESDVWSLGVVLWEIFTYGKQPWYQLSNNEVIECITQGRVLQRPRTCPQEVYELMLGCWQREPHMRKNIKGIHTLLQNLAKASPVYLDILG"}, "NUAK1 (human)": {"target": "NUAK1 (human) (UniProt O60285)"}, "PAK7 (human)": {"target": "PAK7 (human) (UniProt Q9P286)"}, "PASK (human)": {"target": "PASK (human) (UniProt Q96RG2)", "sequence (Q96RG2 whole entry, looked up)": "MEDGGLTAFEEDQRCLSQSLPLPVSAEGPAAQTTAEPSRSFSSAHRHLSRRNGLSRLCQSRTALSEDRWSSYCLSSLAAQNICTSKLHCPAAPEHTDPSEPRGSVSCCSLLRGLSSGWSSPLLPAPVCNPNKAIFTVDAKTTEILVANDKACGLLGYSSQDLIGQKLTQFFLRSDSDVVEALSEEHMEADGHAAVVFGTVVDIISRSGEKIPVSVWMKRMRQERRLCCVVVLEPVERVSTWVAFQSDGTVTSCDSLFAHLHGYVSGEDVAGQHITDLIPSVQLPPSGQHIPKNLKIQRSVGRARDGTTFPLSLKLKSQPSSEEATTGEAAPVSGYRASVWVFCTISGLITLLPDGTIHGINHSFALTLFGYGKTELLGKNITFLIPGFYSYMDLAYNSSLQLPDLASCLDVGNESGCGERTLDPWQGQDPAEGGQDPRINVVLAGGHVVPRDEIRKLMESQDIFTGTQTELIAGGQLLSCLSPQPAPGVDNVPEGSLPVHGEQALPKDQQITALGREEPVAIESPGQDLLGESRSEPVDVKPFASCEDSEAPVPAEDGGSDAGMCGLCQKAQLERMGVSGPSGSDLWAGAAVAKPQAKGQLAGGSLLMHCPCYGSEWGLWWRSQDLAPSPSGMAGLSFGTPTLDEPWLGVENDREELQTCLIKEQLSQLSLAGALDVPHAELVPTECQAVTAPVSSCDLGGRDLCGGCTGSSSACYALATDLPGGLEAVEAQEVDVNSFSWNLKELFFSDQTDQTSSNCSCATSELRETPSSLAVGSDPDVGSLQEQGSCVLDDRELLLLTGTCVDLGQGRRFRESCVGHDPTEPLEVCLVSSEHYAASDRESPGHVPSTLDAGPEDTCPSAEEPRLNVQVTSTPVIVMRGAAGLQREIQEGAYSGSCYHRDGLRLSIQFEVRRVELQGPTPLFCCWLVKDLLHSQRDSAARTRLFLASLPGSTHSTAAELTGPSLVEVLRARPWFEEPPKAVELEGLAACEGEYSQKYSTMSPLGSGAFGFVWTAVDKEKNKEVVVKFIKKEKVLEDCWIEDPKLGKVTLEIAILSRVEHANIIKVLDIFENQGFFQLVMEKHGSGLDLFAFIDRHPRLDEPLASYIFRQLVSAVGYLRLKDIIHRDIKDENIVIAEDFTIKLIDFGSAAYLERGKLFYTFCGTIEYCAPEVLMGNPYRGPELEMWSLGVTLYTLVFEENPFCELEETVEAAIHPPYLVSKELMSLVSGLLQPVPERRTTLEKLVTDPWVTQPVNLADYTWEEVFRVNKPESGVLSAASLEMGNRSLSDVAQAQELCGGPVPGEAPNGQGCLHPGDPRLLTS"}, "PKN1 (human)": {"target": "PKN1 (human) (UniProt Q16512)"}, "PRKACA (human)": {"target": "PRKACA (human) (UniProt P17612)"}, "PRKD1 (human)": {"target": "PRKD1 (human) (UniProt Q15139)"}, "RAF1 (human)": {"target": "RAF1 (human) (UniProt P04049)", "sequence (P04049 whole entry, looked up)": "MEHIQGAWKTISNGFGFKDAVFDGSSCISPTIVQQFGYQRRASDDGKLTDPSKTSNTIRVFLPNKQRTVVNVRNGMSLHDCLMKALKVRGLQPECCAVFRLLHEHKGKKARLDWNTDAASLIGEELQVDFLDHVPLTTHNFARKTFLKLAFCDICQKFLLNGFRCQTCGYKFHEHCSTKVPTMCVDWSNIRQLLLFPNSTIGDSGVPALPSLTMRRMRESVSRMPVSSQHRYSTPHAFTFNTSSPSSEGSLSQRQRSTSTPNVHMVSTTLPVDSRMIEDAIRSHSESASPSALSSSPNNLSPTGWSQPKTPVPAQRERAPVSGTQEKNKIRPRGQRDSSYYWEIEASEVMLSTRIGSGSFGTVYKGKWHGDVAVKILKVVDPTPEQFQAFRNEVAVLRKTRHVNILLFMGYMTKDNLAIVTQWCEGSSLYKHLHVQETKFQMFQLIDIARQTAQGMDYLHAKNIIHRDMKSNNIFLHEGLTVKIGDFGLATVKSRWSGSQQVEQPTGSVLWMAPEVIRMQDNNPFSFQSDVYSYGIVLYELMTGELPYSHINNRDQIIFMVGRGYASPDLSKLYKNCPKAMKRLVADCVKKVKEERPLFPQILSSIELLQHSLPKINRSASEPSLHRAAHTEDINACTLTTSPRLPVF"}, "RPS6KA1 KD1 KD2 (human)": {"target": "RPS6KA1 KD1 KD2 (human) (UniProt Q15418)"}, "RPS6KA6 KD1 KD2 (human)": {"target": "RPS6KA6 KD1 KD2 (human) (UniProt Q9UK32)"}, "RPS6KB1 (human)": {"target": "RPS6KB1 (human) (UniProt P23443)"}, "STK10 (human)": {"target": "STK10 (human) (UniProt O94804)"}, "STK16 (human)": {"target": "STK16 (human) (UniProt O75716)", "sequence (O75716 whole entry, looked up)": "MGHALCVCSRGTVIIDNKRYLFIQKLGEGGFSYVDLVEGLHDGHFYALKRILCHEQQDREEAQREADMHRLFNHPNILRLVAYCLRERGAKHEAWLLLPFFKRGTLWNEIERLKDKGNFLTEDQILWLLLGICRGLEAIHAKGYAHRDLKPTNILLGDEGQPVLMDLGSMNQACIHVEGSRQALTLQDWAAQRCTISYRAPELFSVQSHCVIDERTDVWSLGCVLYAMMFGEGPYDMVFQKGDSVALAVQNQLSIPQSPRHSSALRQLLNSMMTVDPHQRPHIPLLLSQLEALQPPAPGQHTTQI"}, "TAOK1 (human)": {"target": "TAOK1 (human) (UniProt Q7L7X3)"}, "TAOK3 (human)": {"target": "TAOK3 (human) (UniProt Q9H2K8)"}, "TNK2 (human)": {"target": "TNK2 (human) (UniProt Q07912)"}, "TSSK1B (human)": {"target": "TSSK1B (human) (UniProt Q9BXA7)"}, "TXK (human)": {"target": "TXK (human) (UniProt P42681)"}, "ZAP70 (human)": {"target": "ZAP70 (human) (UniProt P43403)"}}, "data": [{"smiles": "O=c1c2ccccc2[nH]c(=S)n1CCN1CCC(=C(c2ccc(F)cc2)c2ccc(F)cc2)CC1", "values": [{"measurement": "residual activity", "setting": "ABL1 (human)", "result": 106, "unit": "%"}, {"measurement": "residual activity", "setting": "ABL2 (human)", "result": 103, "unit": "%"}, {"measurement": "residual activity", "setting": "AKT2 (human)", "result": 101, "unit": "%"}, {"measurement": "residual activity", "setting": "CAMKK1 (human)", "result": 110, "unit": "%"}, {"measurement": "residual activity", "setting": "CDK1 CCNB1 (human)", "result": 83, "unit": "%"}, {"measurement": "residual activity", "setting": "CDK5 CDK5R1 p35 (human)", "result": 101, "unit": "%"}, {"measurement": "residual activity", "setting": "CLK4 (human)", "result": 103, "unit": "%"}, {"measurement": "residual activity", "setting": "CSNK2A2 (human)", "result": 97.7, "unit": "%"}, {"measurement": "residual activity", "setting": "DYRK1A (human)", "result": 99.9, "unit": "%"}, {"measurement": "residual activity", "setting": "EPHA7 (human)", "result": 96.9, "unit": "%"}, {"measurement": "residual activity", "setting": "EPHB1 (human)", "result": 100, "unit": "%"}, {"measurement": "residual activity", "setting": "FGFR1 (human)", "result": 105, "unit": "%"}, {"measurement": "residual activity", "setting": "FGFR4 (human)", "result": 105, "unit": "%"}, {"measurement": "residual activity", "setting": "FLT1 (human)", "result": 95.2, "unit": "%"}, {"measurement": "residual activity", "setting": "IGF1R (human)", "result": 105, "unit": "%"}, {"measurement": "residual activity", "setting": "INSR (human)", "result": 94.3, "unit": "%"}, {"measurement": "residual activity", "setting": "LIMK1 (human)", "result": 98.4, "unit": "%"}, {"measurement": "residual activity", "setting": "LRRK2 (human)", "result": 93.9, "unit": "%"}, {"measurement": "residual activity", "setting": "MAP4K2 (human)", "result": 112, "unit": "%"}, {"measurement": "residual activity", "setting": "MAPK10 (human)", "result": 76.2, "unit": "%"}, {"measurement": "residual activity", "setting": "MAPK14 (human)", "result": 99, "unit": "%"}, {"measurement": "residual activity", "setting": "MARK3 (human)", "result": 107, "unit": "%"}, {"measurement": "residual activity", "setting": "NEK11 (human)", "result": 94, "unit": "%"}, {"measurement": "residual activity", "setting": "NTRK2 (human)", "result": 106, "unit": "%"}, {"measurement": "residual activity", "setting": "NUAK1 (human)", "result": 102, "unit": "%"}, {"measurement": "residual activity", "setting": "PAK7 (human)", "result": 97.4, "unit": "%"}, {"measurement": "residual activity", "setting": "PASK (human)", "result": 99, "unit": "%"}, {"measurement": "residual activity", "setting": "PKN1 (human)", "result": 103, "unit": "%"}, {"measurement": "residual activity", "setting": "PRKACA (human)", "result": 101, "unit": "%"}, {"measurement": "residual activity", "setting": "PRKD1 (human)", "result": 101, "unit": "%"}, {"measurement": "residual activity", "setting": "RAF1 (human)", "result": 96.7, "unit": "%"}, {"measurement": "residual activity", "setting": "RPS6KA1 KD1 KD2 (human)", "result": 97.9, "unit": "%"}, {"measurement": "residual activity", "setting": "RPS6KA6 KD1 KD2 (human)", "result": 101, "unit": "%"}, {"measurement": "residual activity", "setting": "RPS6KB1 (human)", "result": 97.9, "unit": "%"}, {"measurement": "residual activity", "setting": "STK10 (human)", "result": 96.2, "unit": "%"}, {"measurement": "residual activity", "setting": "STK16 (human)", "result": 104, "unit": "%"}, {"measurement": "residual activity", "setting": "TAOK1 (human)", "result": 101, "unit": "%"}, {"measurement": "residual activity", "setting": "TAOK3 (human)", "result": 92.4, "unit": "%"}, {"measurement": "residual activity", "setting": "TNK2 (human)", "result": 105, "unit": "%"}, {"measurement": "residual activity", "setting": "TSSK1B (human)", "result": 106, "unit": "%"}, {"measurement": "residual activity", "setting": "TXK (human)", "result": 100, "unit": "%"}, {"measurement": "residual activity", "setting": "ZAP70 (human)", "result": 98, "unit": "%"}]}, {"smiles": "Cn1cc(/C=C2\\C(=O)Nc3ccc(S(N)(=O)=O)cc32)c2ccccc21", "values": [{"measurement": "residual activity", "setting": "ABL1 (human)", "result": 52.5, "unit": "%"}, {"measurement": "residual activity", "setting": "ABL2 (human)", "result": 54.2, "unit": "%"}, {"measurement": "residual activity", "setting": "AKT2 (human)", "result": 88.6, "unit": "%"}, {"measurement": "residual activity", "setting": "CAMKK1 (human)", "result": 44.9, "unit": "%"}, {"measurement": "residual activity", "setting": "CDK1 CCNB1 (human)", "result": 49.6, "unit": "%"}, {"measurement": "residual activity", "setting": "CDK5 CDK5R1 p35 (human)", "result": 55.8, "unit": "%"}, {"measurement": "residual activity", "setting": "CLK4 (human)", "result": 42.6, "unit": "%"}, {"measurement": "residual activity", "setting": "CSNK2A2 (human)", "result": 66, "unit": "%"}, {"measurement": "residual activity", "setting": "DYRK1A (human)", "result": 92.2, "unit": "%"}, {"measurement": "residual activity", "setting": "EPHA7 (human)", "result": 41.3, "unit": "%"}, {"measurement": "residual activity", "setting": "EPHB1 (human)", "result": 68.7, "unit": "%"}, {"measurement": "residual activity", "setting": "FGFR1 (human)", "result": 50.2, "unit": "%"}, {"measurement": "residual activity", "setting": "FGFR4 (human)", "result": 74.1, "unit": "%"}, {"measurement": "residual activity", "setting": "FLT1 (human)", "result": 70.1, "unit": "%"}, {"measurement": "residual activity", "setting": "IGF1R (human)", "result": 87.9, "unit": "%"}, {"measurement": "residual activity", "setting": "INSR (human)", "result": 87.4, "unit": "%"}, {"measurement": "residual activity", "setting": "LIMK1 (human)", "result": 74.1, "unit": "%"}, {"measurement": "residual activity", "setting": "LRRK2 (human)", "result": 9.76, "unit": "%"}, {"measurement": "residual activity", "setting": "MAP4K2 (human)", "result": 17.4, "unit": "%"}, {"measurement": "residual activity", "setting": "MAPK10 (human)", "result": 93.1, "unit": "%"}, {"measurement": "residual activity", "setting": "MAPK14 (human)", "result": 123, "unit": "%"}, {"measurement": "residual activity", "setting": "MARK3 (human)", "result": 57.2, "unit": "%"}, {"measurement": "residual activity", "setting": "NEK11 (human)", "result": 96.1, "unit": "%"}, {"measurement": "residual activity", "setting": "NTRK2 (human)", "result": 4.83, "unit": "%"}, {"measurement": "residual activity", "setting": "NUAK1 (human)", "result": 5.88, "unit": "%"}, {"measurement": "residual activity", "setting": "PAK7 (human)", "result": 75.3, "unit": "%"}, {"measurement": "residual activity", "setting": "PASK (human)", "result": 84.8, "unit": "%"}, {"measurement": "residual activity", "setting": "PKN1 (human)", "result": 68.9, "unit": "%"}, {"measurement": "residual activity", "setting": "PRKACA (human)", "result": 104, "unit": "%"}, {"measurement": "residual activity", "setting": "PRKD1 (human)", "result": 80, "unit": "%"}, {"measurement": "residual activity", "setting": "RAF1 (human)", "result": 102, "unit": "%"}, {"measurement": "residual activity", "setting": "RPS6KA1 KD1 KD2 (human)", "result": 12.7, "unit": "%"}, {"measurement": "residual activity", "setting": "RPS6KA6 KD1 KD2 (human)", "result": 6.55, "unit": "%"}, {"measurement": "residual activity", "setting": "RPS6KB1 (human)", "result": 44.3, "unit": "%"}, {"measurement": "residual activity", "setting": "STK10 (human)", "result": 17, "unit": "%"}, {"measurement": "residual activity", "setting": "STK16 (human)", "result": 78.7, "unit": "%"}, {"measurement": "residual activity", "setting": "TAOK1 (human)", "result": 98.3, "unit": "%"}, {"measurement": "residual activity", "setting": "TAOK3 (human)", "result": 60.2, "unit": "%"}, {"measurement": "residual activity", "setting": "TNK2 (human)", "result": 72.3, "unit": "%"}, {"measurement": "residual activity", "setting": "TSSK1B (human)", "result": 17, "unit": "%"}, {"measurement": "residual activity", "setting": "TXK (human)", "result": 51.3, "unit": "%"}, {"measurement": "residual activity", "setting": "ZAP70 (human)", "result": 102, "unit": "%"}]}]}
